From US20250197864A1, “LNCRNA TRANSCRIPTS IN MELANOMAGENESIS” (The Regents of the University of California, priority 2021, published 2025)
{Chol} = cholesterol

Assays:
Test in all cases: Cell viability assay (ATP quantitation)
[1] = system: WM3629 melanoma cell line; assay type: cell-based, human; details: 50 nM, 5 days (120 hrs), vs non-targeting control
Method: (§1) EsiRNA, siRNA and ASO GapmeRs were transfected in a final concentration of 50 nM unless mentioned otherwise and the transfection reagent Lipofectamine 3000 (2 ul/ml) was added according to the manufacturer's instructions.
(§2) Dependent on cell doubling time, 0.7-2×10^^3 cells were seeded in 96 well plates. 1 day after seeding cells were incubated in media with oligonucleotide concentration and/or MEKi and transfection reagent. 3 (synergy experiments) or 5 (solely ASO) days after transfection Total luminescence was measured on the SynergyHT plate reader (BioTek) using Gen5 software.

[2] = system: Sk-Mel-2 melanoma cell line; assay type: cell-based, human; details: 50 nM, 5 days (120 hrs), vs non-targeting control
Method: as §1, §2

D04 melanoma cell line = assay type: cell-based, human; details: 50 nM, 5 days (120 hrs), vs non-targeting control
Method: as §1, §2

MM415 melanoma cell line = assay type: cell-based, human; details: 50 nM, 5 days (120 hrs), vs non-targeting control
Method: as §1, §2

[3] = system: Sk-N-AS Neuroblastoma cell line; assay type: cell-based; details: 50 nM, 5 days, vs non-targeting control
Method: as §1, §2

[4] = system: Sk-Mel-28 melanoma cell line; assay type: cell-based, human; details: 50 nM, 5 days (120 hrs), vs non-targeting control
Method: as §1, §2

[5] = system: AV5 primary melanoma cell line; assay type: cell-based, human; details: 50 nM, 5 days (120 hrs), vs non-targeting control
Method: as §1, §2

[6] = system: MaMel30 melanoma cell line; assay type: cell-based; details: 50 nM, 5 days, vs non-targeting control
Method: as §1, §2

[7] = system: hepatocellular carcinoma cell line HepG2; assay type: cell-based; details: 50 nM, 120 hrs, Lipofectamine3000 2 ul/ml, vs non-targeting control ASO
Method: as §1, §2
(§3) Cell viability was compared to treatment with non-targeting control ASO-treatment. Lipofectamine3000 concentration was 2 ul/ml.

[8] = system: sarcoma cell line SK-LMS-1; assay type: cell-based; details: SK-LMS-1 sarcoma; 50 nM, 120 hrs; Lipofectamine3000 2 ul/ml; vs non-targeting control ASO
Method: as §1, §2, §3

Measured: cell viability decrease

5′-AUUUCAUGUCUGAAGCAAUUCUACT-3′ (chain 2 AAUAAAGUACAGACUUCGUUAAGAUGA; chemistry not given here; one strand is listed 3' to 5') [SEQ ID NO: 44]
significant cell viability decrease: [1] | [2] | D04 melanoma cell line | MM415 melanoma cell line

5′-GCCAACAGCAUGUCAAUUCAGUGAT-3′ (chain 2 GACGGUUGUCGUACAGUUAAGUCACUA; chemistry not given here; one strand is listed 3' to 5') [SEQ ID NO: 43]
significant cell viability decrease: [1] | [2] | D04 melanoma cell line

5′-GGUAAAAACAUGAAGCUAAUAGUUA-3′ (chain 2 ACCCAUUUUUGUACUUCGAUUAUCAAU; listed as RNA, chemistry not given here; one strand is listed 3' to 5') [SEQ ID NO: 42]
significant cell viability decrease: [2] | D04 melanoma cell line | MM415 melanoma cell line

5′-UCACAAAGAGAGACAGGAAUU-3′ (chain 2 UUCCUGUCUCUCUUUGUGAUU; listed as RNA, chemistry not given here) [SEQ ID NO:46]
significant cell viability decrease: D04 melanoma cell line | MM415 melanoma cell line

AAGTCCTTGGTTGATG (QIAGEN GapmeR, modification pattern not given here) [SEQ ID NO: 21, Antisense oligonucleotide targeting AL157871.4-201]
significant cell viability decrease: [3] | [4] | [2] | D04 melanoma cell line | MM415 melanoma cell line

AGATGGCTCTGTAAGA (QIAGEN GapmeR, modification pattern not given here) [SEQ ID NO: 49, Antisense oligonucleotide targeting SNX10]
significant cell viability decrease: D04 melanoma cell line

AGCAAUGACUCCUGAACAUUU (antisense AUGUUCAGGAGUCAUUGCUUU; siRNA; 5' phosphate on antisense strand, other chemistry not given here) [SEQ ID NO: 27, siRNA targeting RP11-7011.3]
significant cell viability decrease: [4] | [5] | D04 melanoma cell line

ATTGATGAAAGGTGAA (QIAGEN GapmeR, modification pattern not given here) [SEQ ID NO: 19, Antisense oligonucleotide targeting ARF-AS1-201, ARF-AS1-202 and ARF-AS1-203]
significant cell viability decrease: [3] | [6] | [4] | [2] | D04 melanoma cell line | MM415 melanoma cell line

CCCAGAAGCUAGAGGUAAAUU (antisense UUUACCUCUAGCUUCUGGGUU; listed as RNA, chemistry not given here) [SEQ ID NO: 23, siRNA targeting BX470102.3-008]
significant cell viability decrease: [4] | [5] | D04 melanoma cell line

GACTGGAGATAATTAA-Cholesterol (3' {Chol}, sugars by position and backbone not given here; GapmeR, chemically modified) [SEQ ID NO:47, TRASH targeting ASO with additional Cholesterol modification]
significant cell viability decrease: [7] | [8] | D04 melanoma cell line | MM415 melanoma cell line

GAGUAACAGAGGAGAACUUUU (antisense AAGUUCUCCUCUGUUACUCUU; siRNA; 5' phosphate on antisense strand, other chemistry not given here) [SEQ ID NO: 25, siRNA targeting both isoforms of AC004540.4]
significant cell viability decrease: [5]

GCGTCAACTAAAGCAA (QIAGEN GapmeR, modification pattern not given here) [SEQ ID NO: 20, Antisense oligonucleotide targeting ARF-AS1-202 and ARF-AS1-203]
significant cell viability decrease: [3] | [4] | [2] | D04 melanoma cell line | MM415 melanoma cell line

GGAAAGGCGAGCUGAGCAUUU (antisense AUGCUCAGCUCGCCUUUCCUU; listed as RNA, chemistry not given here) [SEQ ID NO: 37, siRNA targeting ARF-AS1 isoform 1]
significant cell viability decrease: D04 melanoma cell line

GTAAGTAGGAGCTGTG (QIAGEN GapmeR, modification pattern not given here) [SEQ ID NO: 22, Antisense oligonucleotide targeting AL157871.4-201]
significant cell viability decrease: [3] | [6] | [4] | [2] | D04 melanoma cell line | MM415 melanoma cell line

UGGAUAAUGAUAAGGUCUAUU (antisense UAGACCUUAUCAUUAUCCAUU; listed as RNA, chemistry not given here) [SEQ ID NO: 39, siRNA targeting AL157871.4-201]
significant cell viability decrease: D04 melanoma cell line
